# Assay results: US6518243B1, “Desleucyl glycopeptide antibiotics and methods of making same” (Trustees of Princeton University, priority 1999, dated 2003)
# Assays:
# Experiment in all cases: Zone of inhibition screen, 96 well agar array format
# Type in all cases: cell-based
# Parameters in all cases: scale not given here
# S. aureus (ATCC 29213) = details: zone of inhibition relative to 1 mg/ml stock solution of p-chlorobiphenylvancomycin
# In short: (§1)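 Read-out is antibacterial activity on agar laid out as a 96-well array; every compound went through all strains of the panel.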
# [1] = tested on: S. epidermidis (ATCC 12228)
# In short: as §1
# E. faecalis (CL 4877) = details: zone of inhibition relative to 1 mg/ml p-chlorobiphenylvancomycin
# In short: as §1
# [2] = zone of inhibition relative to 1 mg/ml stock solution of p-chlorobiphenylvancomycin
# [3] = zone of inhibition relative to 1 mg/ml p-chlorobiphenylvancomycin
Compound,"zone score, S. aureus ATCC 29213 (S. aureus (ATCC 29213))","zone score, S. epidermidis ATCC 12228 [1, 2]","zone score, E. faecalis CL 4877 (E. faecalis (CL 4877))","zone score, S. epidermidis ATCC 12228 [1, 3]"
CC(=O)OC(CC(=O)NC1C(=O)NC(CC(N)=O)C(=O)NC2C(=O)NC3C(=O)NC(C(=O)NC(C(=O)O)c4cc(O)cc(O)c4-c4cc3ccc4O)C(O)c3ccc(c(Cl)c3)Oc3cc2cc(c3OC2OC(CO)C(O)C(O)C2OC2CC(C)(NCc3ccc(-c4ccc(Cl)cc4)cc3)C(O)C(C)O2)Oc2ccc(cc2Cl)C1O)C[N+](C)(C)C (mixture of isomers) [Compound 118],2,2,–,–
CSCCC(NC(C)=O)C(=O)NC1C(=O)NC(CC(N)=O)C(=O)NC2C(=O)NC3C(=O)NC(C(=O)NC(C(=O)O)c4cc(O)cc(O)c4-c4cc3ccc4O)C(O)c3ccc(c(Cl)c3)Oc3cc2cc(c3OC2OC(CO)C(O)C(O)C2OC2CC(C)(NCc3ccc(-c4ccc(Cl)cc4)cc3)C(O)C(C)O2)Oc2ccc(cc2Cl)C1O (mixture of isomers) [Compound 175],2,2,–,–
CCCCCCCCCCCCCC(=O)NCC(=O)N[C@H]1C(=O)N[C@@H](CC(N)=O)C(=O)N[C@H]2C(=O)N[C@H]3C(=O)N[C@H](C(=O)N[C@@H](C(=O)O)c4cc(O)cc(O)c4-c4cc3ccc4O)[C@H](O)c3ccc(c(Cl)c3)Oc3cc2cc(c3O[C@@H]2O[C@H](CO)[C@@H](O)[C@H](O)[C@H]2O[C@@H]2C[C@@](C)(NCc3ccc(-c4ccc(Cl)cc4)cc3)[C@@H](O)[C@@H](C)O2)Oc2ccc(cc2Cl)[C@H]1O [Compound 22],2,2,–,–
CC1OC(OC2C(Oc3c4cc5cc3Oc3ccc(cc3Cl)C(O)C3NC(=O)C(NC(=O)C5NC(=O)C(CC(N)=O)NC(=O)C(NC(=O)CNC(=O)C=Cc5ccco5)C(O)c5ccc(c(Cl)c5)O4)c4ccc(O)c(c4)-c4c(O)cc(O)cc4C(C(=O)O)NC3=O)OC(CO)C(O)C2O)CC(C)(NCc2ccc(-c3ccc(Cl)cc3)cc2)C1O (stereo not drawn) [Compound 306],–,–,2,2
CC1OC(OC2C(Oc3c4cc5cc3Oc3ccc(cc3Cl)C(O)C3NC(=O)C(NC(=O)C5NC(=O)C(CC(N)=O)NC(=O)C(NC(=O)c5ccc[n+]([O-])c5)C(O)c5ccc(c(Cl)c5)O4)c4ccc(O)c(c4)-c4c(O)cc(O)cc4C(C(=O)O)NC3=O)OC(CO)C(O)C2O)CC(C)(NCc2ccc(-c3ccc(Cl)cc3)cc2)C1O (stereo not drawn) [Compound 308],–,–,2,2
CNC(=O)C=CC(=O)NC1C(=O)NC(CC(N)=O)C(=O)NC2C(=O)NC3C(=O)NC(C(=O)NC(C(=O)O)c4cc(O)cc(O)c4-c4cc3ccc4O)C(O)c3ccc(c(Cl)c3)Oc3cc2cc(c3OC2OC(CO)C(O)C(O)C2OC2CC(C)(NCc3ccc(-c4ccc(Cl)cc4)cc3)C(O)C(C)O2)Oc2ccc(cc2Cl)C1O (stereo not drawn) [Compound 309],–,–,2,2
CC1OC(OC2C(Oc3c4cc5cc3Oc3ccc(cc3Cl)C(O)C3NC(=O)C(NC(=O)C5NC(=O)C(CC(N)=O)NC(=O)C(NC(=O)Cc5c(F)c(F)c(F)c(F)c5F)C(O)c5ccc(c(Cl)c5)O4)c4ccc(O)c(c4)-c4c(O)cc(O)cc4C(C(=O)O)NC3=O)OC(CO)C(O)C2O)CC(C)(NCc2ccc(-c3ccc(Cl)cc3)cc2)C1O (stereo not drawn) [Compound 310],–,–,2,2
CC1OC(OC2C(Oc3c4cc5cc3Oc3ccc(cc3Cl)C(O)C3NC(=O)C(NC(=O)C5NC(=O)C(CC(N)=O)NC(=O)C(NC(=O)c5cccs5)C(O)c5ccc(c(Cl)c5)O4)c4ccc(O)c(c4)-c4c(O)cc(O)cc4C(C(=O)O)NC3=O)OC(CO)C(O)C2O)CC(C)(NCc2ccc(-c3ccc(Cl)cc3)cc2)C1O (stereo not drawn) [Compound 319],–,–,2,2
CC1OC(OC2C(Oc3c4cc5cc3Oc3ccc(cc3Cl)C(O)C3NC(=O)C(NC(=O)C5NC(=O)C(CC(N)=O)NC(=O)C(NC(=O)Cc5ccsc5)C(O)c5ccc(c(Cl)c5)O4)c4ccc(O)c(c4)-c4c(O)cc(O)cc4C(C(=O)O)NC3=O)OC(CO)C(O)C2O)CC(C)(NCc2ccc(-c3ccc(Cl)cc3)cc2)C1O (stereo not drawn) [Compound 320],–,–,2,2
